In PubChem BioAssay AID1259407 (Chemical Carcinogenesis Research Information System (CCRIS), 2018):
Activity calls are given as the source filed them. How the calls were made is not given here.

Tested on: CCRIS mutagenicity, Ames/micronucleus/aberration tests
Test: CCRIS mutagenicity studies
[1] = Test System: AMES SALMONELLA TYPHIMURIUM, Strain/Indicator: TA100, Metabolic Activation: NONE, Method: STANDARD PLATE
[2] = Test System: AMES SALMONELLA TYPHIMURIUM, Strain/Indicator: TA98, Metabolic Activation: NONE, Method: PREINCUBATION
[3] = Test System: AMES SALMONELLA TYPHIMURIUM, Strain/Indicator: TA100, Metabolic Activation: NONE, Method: PREINCUBATION

## CC(C)(C)NC(=O)[C@H]1CC[C@H]2[C@@H]3CC=C4C=C(C(=O)O)CC[C@]4(C)[C@H]3CC[C@]12C
Test System: AMES SALMONELLA TYPHIMURIUM, Strain/Indicator: TA97, Metabolic Activation: NONE, Method: STANDARD PLATE
  mutagenic call: inactive; negative
Test System: AMES SALMONELLA TYPHIMURIUM, Strain/Indicator: TA97, Metabolic Activation: RAT LIVER S-9, AROCLOR 1254, Method: PREINCUBATION
  mutagenic call: inactive; negative
Test System: AMES SALMONELLA TYPHIMURIUM, Strain/Indicator: TA98, Metabolic Activation: NONE, Method: STANDARD PLATE
  mutagenic call: inactive; negative
Test System: AMES SALMONELLA TYPHIMURIUM, Strain/Indicator: TA98, Metabolic Activation: RAT LIVER S-9, AROCLOR 1254, Method: PREINCUBATION
  mutagenic call: inactive; negative
[1]
  mutagenic call: inactive; negative
Test System: AMES SALMONELLA TYPHIMURIUM, Strain/Indicator: TA100, Metabolic Activation: RAT LIVER S-9, AROCLOR 1254, Method: PREINCUBATION
  mutagenic call: inactive; negative
Test System: AMES SALMONELLA TYPHIMURIUM, Strain/Indicator: TA102, Metabolic Activation: NONE, Method: STANDARD PLATE
  mutagenic call: inactive; negative
Test System: AMES SALMONELLA TYPHIMURIUM, Strain/Indicator: TA102, Metabolic Activation: RAT LIVER S-9, AROCLOR 1254, Method: PREINCUBATION
  mutagenic call: inactive; negative

## c1cc[c]([Sn]([c]2ccccc2)([c]2ccccc2)[c]2ccccc2)cc1
Test System: AMES SALMONELLA TYPHIMURIUM, Strain/Indicator: TA98, Metabolic Activation: NONE, Method: SUSPENSION/PLATE
  mutagenic call: inactive; negative
Test System: AMES SALMONELLA TYPHIMURIUM, Strain/Indicator: TA100, Metabolic Activation: NONE, Method: SUSPENSION/PLATE
  mutagenic call: inactive; negative

## C[C@]12C=CC(=O)C=C1CC[C@@H]1[C@@H]2[C@@H](O)C[C@@]2(C)[C@H]1CC[C@]2(O)C(=O)CO
[2]
  mutagenic call: inactive; negative
Test System: AMES SALMONELLA TYPHIMURIUM, Strain/Indicator: TA98, Metabolic Activation: S-9, Method: PREINCUBATION
  mutagenic call: inactive; negative
[3]
  mutagenic call: inactive; negative
Test System: AMES SALMONELLA TYPHIMURIUM, Strain/Indicator: TA100, Metabolic Activation: S-9, Method: PREINCUBATION
  mutagenic call: inactive; negative
Test System: MOUSE LYMPHOMA, Strain/Indicator: L5178Y (TK+/TK-), Metabolic Activation: NONE, Method: SUSPENSION/PLATE
  mutagenic call: inactive; negative
Test System: MOUSE LYMPHOMA, Strain/Indicator: L5178Y (TK+/TK-), Metabolic Activation: RAT, LIVER, S-9, AROCLOR 1254, Method: SUSPENSION/PLATE
  mutagenic call: active; positive

## O=CNc1ccc2c(c1)Cc1ccccc1-2
Test System: AMES SALMONELLA TYPHIMURIUM, Strain/Indicator: TA98, Metabolic Activation: RAT, LIVER, S-9, AROCLOR 1254, Method: STANDARD PLATE
  mutagenic call: active; positive

## CC=C(Cl)Cl
Test System: AMES SALMONELLA TYPHIMURIUM, Strain/Indicator: RSJ100, Metabolic Activation: NONE, Method: PREINCUBATION
  mutagenic call: active; positive
Test System: AMES SALMONELLA TYPHIMURIUM, Strain/Indicator: RSJ100, Metabolic Activation: NONE, Method: VAPOR PHASE
  mutagenic call: active; positive
[2]
  mutagenic call: inactive; negative
Test System: AMES SALMONELLA TYPHIMURIUM, Strain/Indicator: TA98, Metabolic Activation: RAT, LIVER, S-9, AROCLOR, Method: PREINCUBATION
  mutagenic call: inactive; negative
[3]
  mutagenic call: inactive; negative
Test System: AMES SALMONELLA TYPHIMURIUM, Strain/Indicator: TA100, Metabolic Activation: RAT, LIVER, S-9, AROCLOR, Method: PREINCUBATION
  mutagenic call: inactive; negative
Test System: AMES SALMONELLA TYPHIMURIUM, Strain/Indicator: TA104, Metabolic Activation: NONE, Method: PREINCUBATION
  mutagenic call: inactive; negative
Test System: AMES SALMONELLA TYPHIMURIUM, Strain/Indicator: TA104, Metabolic Activation: RAT, LIVER, S-9, AROCLOR, Method: PREINCUBATION
  mutagenic call: inactive; negative
Test System: AMES SALMONELLA TYPHIMURIUM, Strain/Indicator: TA1535, Metabolic Activation: NONE, Method: PREINCUBATION
  mutagenic call: inactive; negative
Test System: AMES SALMONELLA TYPHIMURIUM, Strain/Indicator: TA1535, Metabolic Activation: RAT, LIVER, S-9, AROCLOR, Method: PREINCUBATION
  mutagenic call: inactive; negative
Test System: AMES SALMONELLA TYPHIMURIUM, Strain/Indicator: TPT100, Metabolic Activation: NONE, Method: PREINCUBATION
  mutagenic call: inactive; negative
Test System: AMES SALMONELLA TYPHIMURIUM, Strain/Indicator: TPT100, Metabolic Activation: NONE, Method: VAPOR PHASE
  mutagenic call: active; positive

## O=[N+]([O-])c1cccc2c(Cl)nsc12
[1]
  mutagenic call: active; positive
